# Reference: patent publication US6323235A, “Benzene-condensed heterocyclic derivatives and their uses” (priority 1995, dated 2001)
# Key:
# [1] = system: platelet aggregation induced by TXA2 agonist U-46619; experiment: Platelet Aggregation-inhibition Action 1 (U-46619-induced, platelet-rich plasma); format: cell-based; settings: U-46619 1-4 μM final, PRP, compound added one minute before U-46619
# Procedure: Platelet Aggregation-inhibition Action 1
# (§1) Blood collected from medial cubital vein is centrifuged at 800 rmp for 10 minutes and the upper portion of the resultant is collected as platelet-rich plasma (PRP). The PRP is dividedly poured into small test tubes and a TXA2 agonist U-46619 is added thereto (final concentration: 1-4 μM) so as to induce platelet aggregation. The degree of platelet aggregation is measured in terms of change in turbidity by a platelet aggregation measuring apparatus (Hematoracer, NIKO BIOSCIENCE). The compound is added one minute before the addition of U-46619 and the concentration of the compound at which the aggregation is inhibited by 50% is calculated as IC50 value.
# [2] = system: platelet aggregation induced by ADP; experiment: Platelet Aggregation-Inhibition Action 2 (ADP-induced, platelet-rich plasma); format: cell-based; settings: ADP 1-3 μM final, PRP, compound added one minute before ADP
# Procedure: Platelet Aggregation-Inhibition Action 2
# as §1, with “PRP).” for “(PRP).”, “ADP” for “a TXA2 agonist U-46619”, “1-3” for “1-4”, “Hematoracer,” for “(Hematoracer,”, “ADP” for “U-46619 and”
# TXA2 receptor = molecular target: T1, TXA2 receptor (Oryctolagus cuniculus, UniProt Q6WQI8); experiment: TXA2 Receptor Binding Test 1 ([3H]SQ29548, washed rabbit platelets); design: species or system New Zealand White rabbit; settings: [3H]SQ29548 3 nM, rabbit washed platelets 10 mg/ml, 25° C., 60 minutes
# T1 sequence (Q6WQI8 1-233): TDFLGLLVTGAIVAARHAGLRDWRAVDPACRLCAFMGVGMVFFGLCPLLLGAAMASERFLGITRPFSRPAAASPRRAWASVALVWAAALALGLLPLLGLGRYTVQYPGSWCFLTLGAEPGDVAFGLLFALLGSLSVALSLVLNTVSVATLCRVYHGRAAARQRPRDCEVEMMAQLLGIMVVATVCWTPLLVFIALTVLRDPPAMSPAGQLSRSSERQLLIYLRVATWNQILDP
# Procedure: TXA2 Receptor Binding Test 1
# Blood from a New Zealand White rabbit is taken in a vessel containing ACD solution (prepared by dissolving 1.175 g of sodium citrate, 0.685 g of citric acid and 1 g of dextrose in 50 ml of distilled water) and centrifuged at 180×g for 10 minutes at room temperature to obtain platelet-rich plasma. The obtained platelet-rich plasma is centrifuged at […] at room temperature to precipitate platelets. The platelets are then suspended in 50 mM Tris-HCl buffer (pH 7.2, containing 0.154M of NaCl) and the suspension is centrifuged at 2800×g for 15 minutes at 4° C. These operations are repeated twice to prepare washed platelets and the concentration of the platelets are adjusted to a final concentration of 10 mg/ml (wet weight).
# As the ligand of TXA2, tritium-labelled SQ29548 ([^3 H]SQ29548) is used. In the antagonism test, 20 μl of [^3 H]SQ29548 having a final concentration of 3 nM is added to 500 μl of a platelet suspension having a platelet concentration of 10 mg/ml and 2.6 μl of a solution of a test compound dissolved in an appropriate solvent is added thereto. After incubating the resulting mixture at 25° C. for 60 minutes, the mixture is filtered through a glass filter by the cell harvester method. After washing the filter with 50 mM Tris-HCl buffer (3×4 ml), the radioactivity of the filter is measured by a scintillation counter, thereby measuring the amount of the [^3 H]SQ29548 bound to platelets. In the saturation test, 20 μl of [^3 H]SQ29548 is added to a final concentration of 0.1-50 nM and 2.6 μl of BM13505 having a final concentration of 1 μM is added so as to check non-specific binding, followed by carrying out the binding test. The concentration of the test compound at which binding of [^3 H]SQ29548 is inhibited by 50% is determined as the IC50 value.
# The results of the evaluation of the activities of the compounds of the present invention by this method are summarized d in Table 3.
Compound,IC50 [1],IC50 [2],IC50 (TXA2 receptor)
"O=C(O)COc1cccc2c(CCOC(c3ccccc3)c3ccccc3)coc12 [Example 43, (3-(2-(diphenylmethoxy)ethyl)benzofuran-7-yloxy)acetate]",4 µM,–,0.0696 µM
"O=C(O)COc1cccc2c(COCC(c3ccccc3)c3ccccc3)coc12 [Example 49, (3-((2,2-diphenylethoxy)methyl)benzofuran-7-yloxy)acetic acid]",–,8.2 µM,–
"O=C(O)COc1cccc2c(COCCOC(c3ccccc3)c3ccccc3)coc12 [Example 59, (3-((2-(diphenylmethoxy)ethoxy)methyl)benzofuran-7-yloxy)acetic acid]",0.33 µM,0.6 µM,–
"Cc1oc2c(OCC(=O)O)cccc2c1CCSC(c1ccccc1)c1ccccc1 [Example 81, (3-(2-(diphenylmethylthio)ethyl)-2-methylbenzofuran-7-yloxy)acetic acid]",0.64 µM,4.5 µM,–
"O=C(O)COc1cccc2c(CCSC(c3ccccc3)c3ccccc3)c(CO)oc12 [Example 83, (2-hydroxymethyl-3-(2-(diphenylmethylthio)ethyl)benzofuran-7-yloxy)acetic acid]",0.46 µM,3.3 µM,–
O=C(O)COc1cccc2c(CCSC(c3ccccc3)c3ccccc3)c(CCO)oc12 [Example 85],0.62 µM,0.75 µM,–
"O=C(O)COc1cccc2c(CCSCC(c3ccccc3)c3ccccc3)coc12 [Example 88, (3-(2-(2,2-diphenylethylthio)ethyl)benzofuran-7-yloxy)acetic acid]",0.51 µM,0.73 µM,–
"O=C(O)COc1cccc2c(CCCSC(c3ccccc3)c3ccccc3)coc12 [Example 91, (3-(3,3-diphenylmethylthiopropyl)benzofuran-7-yloxy)acetic acid]",–,1.9 µM,–
"O=C(O)COc1cccc2c(COCC=C(c3ccccc3)c3ccccc3)coc12 [Example 94, (3-((3,3-diphenyl-2-propenyloxy)methyl)benzofuran-7-yloxy)acetic acid]",0.71 µM,–,–
"C[C@H](COC(c1ccccc1)c1ccccc1)OCc1coc2c(OCC(=O)O)cccc12 [Example 97, (R)-(3-((2-(diphenylmethoxy)-1-methylethoxy)methyl)benzofuran-7-yloxy)acetic acid]",1.6 µM,3.4 µM,–
"O=C(O)COc1cccc2c(CC(O)CCC(c3ccccc3)c3ccccc3)coc12 (stereo not drawn) [Example 101, (3-(2-hydroxy-5,5-diphenylpentyl)benzofuran-7-yloxy)acetic acid]",1.5 µM,1.8 µM,–
Cc1ccc(S(=O)(=O)NCCn2ccc3c(OCC(=O)O)cccc32)cc1 [Example 103],1.3 µM,–,0.00309 µM
"O=C(O)COc1cccc2c1ccn2CCOCC(c1ccccc1)c1ccccc1 [Example 109, (1-(2-(2,2-diphenylethoxy)ethyl)indole-4-yloxy)acetic acid]",–,27.9 µM,–
"O=C(O)COc1cccc2c1ccn2CCSC(c1ccccc1)c1ccccc1 [Example 112, (1-(2-(diphenylmethylthio)ethyl)indole-4-yloxy)acetate]",0.84 µM,4.5 µM,–
"O=C(O)COc1cccc2c1CCN2CCOCC(c1ccccc1)c1ccccc1 [Example 122, (1-(2-(2,2-diphenylethoxy)ethyl)indoline-4-yloxy)acetic acid]",1.4 µM,2.7 µM,–
"O=C(O)COc1cccc2c1CCN2CCSC(c1ccccc1)c1ccccc1 [Example 125, (1-(2-(diphenylmethylthio)ethyl)indoline-4-yloxy)acetic acid]",0.72 µM,3.1 µM,–
"O=C(O)COc1cccc2cc(COCCOC(c3ccccc3)c3ccccc3)oc12 [Example 130, (2-(2-diphenylmethoxyethoxymethyl)benzofuran-7-yloxy)acetic acid]",18 µM,–,–

# The next lines start with the values.
IC50 [1],IC50 [2],IC50 (TXA2 receptor),Compound
1.1 µM,–,–,O=C(O)COc1cccc2c(CNS(=O)(=O)CCOc3ccccc3)coc12 [Example 4]
1 µM,305 µM,–,"O=C(O)COc1cccc2c(CNS(=O)(=O)CCc3ccccc3)coc12 [Example 8, (3-(((2-phenylethyl)sulfonylamino)methyl)benzofuran-7-yloxy)acetic acid]"
0.3 µM,–,0.00446 µM,"O=C(O)COc1cccc2c(CNS(=O)(=O)CCCc3ccccc3)coc12 [Example 9, (3-((3-phenylpropylsulfonylamino)methyl)benzofuran-7-yloxy)acetic acid]"
7.2 µM,–,0.0292 µM,O=C(O)COc1cccc2c(CNS(=O)(=O)c3ccc4ccccc4c3)coc12 [Example 13]
0.14 µM,–,0.00192 µM,"Cc1oc2c(OCC(=O)O)cccc2c1CNS(=O)(=O)CCCc1ccccc1 [Example 17, (3-(((3-phenylpropyl)sulfonylamino)methyl)-2-methylbenzofuran-7-yloxy)acetic acid]"
1.4 µM,–,0.788 µM,"CC(C)c1oc2c(OCC(=O)O)cccc2c1CNS(=O)(=O)CCc1ccccc1 [Example 19, (3-(((2-phenylethyl)sulfonylamino)methyl)-2-isopropylbenzofuran-7-yloxy)acetic acid]"
0.088 µM,–,0.0186 µM,"Cc1oc2c(OCC(=O)O)cccc2c1CCNS(=O)(=O)Cc1ccccc1 [Example 24, (3-(2-(benzylsulfonylamino)ethyl)-2-methylbenzofuran-7-yloxy)acetic acid]"
0.14 µM,–,0.00479 µM,"Cc1oc2c(OCC(=O)O)cccc2c1CCNS(=O)(=O)CCc1ccccc1 [Example 25, (3-(2-(2-phenylethylsulfonylamino)ethyl)-2-methylbenzofuran-7-yloxy)acetic acid]"
1.6 µM,–,0.569 µM,"Cc1oc2c(OCC(=O)O)cccc2c1CC[S+]([O-])CCc1ccccc1 (stereo not drawn) [Example 32, (3-(2-(2-phenylethylsulfinyl)ethyl)-2-methylbenzofuran-7-yloxy)acetic acid]"
1.1 µM,–,0.0919 µM,"Cc1oc2c(OCC(=O)O)cccc2c1CCS(=O)(=O)CCc1ccccc1 [Example 33, (3-(2-(2-phenylethylsulfonyl)ethyl)-2-methylbenzofuran-7-yloxy)acetic acid]"
4.5 µM,7.8 µM,–,"Cc1oc2c(OCC(=O)O)cccc2c1CCON=C(c1ccccc1)c1ccccc1 [Example 35, (3-(2-(diphenylmethyleneaminoxy)ethyl)-2-methylbenzofuran-7-yloxy)acetic acid]"
–,–,0.596 µM,"O=C(O)COc1cccc2c(CCOCc3ccc(-c4ccccc4)cc3)coc12 [Example 46, (3-(2-(4-phenylbenzyloxy)ethyl)benzofuran-7-yloxy)acetic acid]"
–,–,3.67 µM,"O=C(O)COc1cccc2c(CCOCC(=O)c3ccccc3)coc12 [Example 47, (3-(2-(2-oxo-2-phenylethoxy)ethyl)benzofuran-7-yloxy)acetic acid]"
–,–,0.229 µM,"C[C@@H](COCc1coc2c(OCC(=O)O)cccc12)c1ccccc1 [Example 51, (R)-(3-((2-phenylpropyloxy)methyl)benzofuran-7-yloxy)acetic acid]"
–,–,2.02 µM,"O=C(O)COc1cccc2c(COC(Cc3ccccc3)Cc3ccccc3)coc12 [Example 53, (3-((1-benzyl-2-phenylethoxy)methyl)benzofuran-7-yloxy)acetic acid]"
